Experimental findings from patent US10653688B2, “6-(6-membered heteroaryl and aryl)isoquinolin-3-yl carboxamides and preparation and use thereof” (Samumed, LLC, priority 2017, dated 2020) are described below.

Read-outs that look alike come from different tables or passages of the source.

Experiment [1] has as its system Wnt activity (SW480 colon carcinoma cells stably expressing the Sp5-Luc reporter gene). The experiment in a line: Wnt activity screening assay (Sp5-Luc reporter gene assay). The experiment is classed as cell-based, human. The note with it: Homo sapiens; for EC50: 36 to 48 hours; for inhibition at 10 µM: read-out: percent inhibition at 10 μM (given for EC50 >10 μM), 10 μM. The procedure, abridged: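 SW480 colon carcinoma cells stably carrying a lentiviral luciferase reporter driven by an Sp5 promoter with eight TCF/LEF sites, plated at 4,000 cells/well in DMEM with 1% FBS. Compound exposure for 36–48 h at 37 °C, then luminescence read. Signals normalized to DMSO; EC50 from four-parameter nonlinear fit.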
A general note: A reporter such as luciferase makes a cellular process visible.

For experiment [2], the system named is secreted cytokines TNFα, IL-6 and KC-GRO in BV-2 cells (mouse microglial cells). As to the kind of experiment: Secreted cytokines in lipopolysaccharide-stimulated mouse glial cell line. The experiment is classed as cell-based. The note with it: LPS 250 ng/mL 5 hours, table does not say which cytokine. The procedure, abridged: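 BV-2 cells seeded at 35,000/well were pretreated overnight with compound (10 μM to 4.6 nM final), then stimulated 5 h with 250 ng/mL E. coli O111:B4 LPS. Supernatant TNFα, IL-6 and KC-GRO were quantified by electrochemiluminescence against standard curves (pg/mL) to fit EC50. Cytotoxicity was checked by CellTiter-Glo ATP read-out.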

Experiment [3] has as its system pT212Tau in Dyrk1a- and MAPT-overexpressing HEK293T cells. As to the kind of experiment: Tau phosphorylation at Threonine 212 (pT212Tau) sandwich ELISA in double transfected cells. As to conditions: Homo sapiens, HEK-293T, read-out: Thr212 EC50 (μM). In general terms: ELISA stands for enzyme-linked immunosorbent assay.
Method: HEK293T cells (transfectable human embryonic kidney cells) were cultured in DMEM medium supplemented with 10% FBS and 1% penicillin/streptomycin.
HEK293T cells were transiently transfected to overexpress Dyrk1a and microtubule-associated protein Tau (MAPT) genes. Specifically, Dyrk1a and MAPT expression vectors were obtained from OriGene (10 μg of each, catalog numbers SC314641 and RC216166, respectively). […] HEK293T cells were seeded at 1.0×10^7 cells in 10 mL per T-75 flask. […] One T-75 flask was designated as a no-vector negative control for pT212Tau signal.
After 4-6 hours of incubation in transfection reagents, transiently double transfected HEK293T cells were dissociated by treatment with trypsin EDTA and seeded at 1.0×10^5 cells in 100 μL per well in 96-well plates. No-vector negative controls were seeded in separate 96-well plates to avoid the risk of the negative control cells picking up the overexpression during incubation.
96-well flat-bottom plates were coated with 100 μL per well anti-HT7 capture antibody (ThermoFisher, MN1000) diluted 1:300 in 1×PBS at 4° C. overnight, with shaking at 500 rpm.
Cells were then lysed with 100 μL 1×RIPA buffer supplemented with phosphatase and protease inhibitors (each diluted to a final 1×). […] V-bottom plates were centrifuged at 4000 rpm, 4° C., for 15 minutes, and 100 μL of lysate supernatant from each well was directly tested for pT212Tau signal by sandwich ELISA.
The subject of experiment [4] is Tau phosphorylation at Ser396 (pSer396) in SH-SY5Y cells. The experiment in a line: Tau phosphorylation at Ser396 (pSer396) cell assay, ELISA/western blot. The experiment is classed as cell-based, human. The note with it: Homo sapiens.
Experiment [5] concerns SW480 colon carcinoma cells. As to the kind of experiment: Cell viability assay (CellTiter-Glo). The experiment is classed as cell-based, human. As to conditions: Homo sapiens; for EC50: 96 h, four days, CellTiter-Glo; for inhibition at 10 µM: read-out: percent inhibition at 10 μM (given for EC50 >10 μM), 10 μM.
[6] abbreviates: SH-SY5Y cells, overnight (16-18 h), read-out: pSer396 Tau EC50.

On to `O=C(Nc1cc2cc(-c3cccnc3)ccc2cn1)C1CC1` [Compound 6, N-(6-(Pyridin-3-yl)isoquinolin-3-yl)cyclopropanecarboxamide], for which the EC50 (as a rule, the midpoint of the concentration-response curve) in experiment [1] worked out at 1100 nM; in experiment [2] it was 33 nM; in experiment [3], 0.01 µM; in experiment [4] (setting [6]), 0.798 µM; in experiment [5], 1600 nM.

Take `O=C(CN1CCOCC1)Nc1cc2cc(-c3ccnnc3)ccc2cn1` [Compound 67, 2-morpholino-N-(6-(pyridazin-4-yl)isoquinolin-3-yl)acetamide]: the EC50 in experiment [1] was over 10000 nM; in experiment [2], 406 nM; in experiment [3] it was 0.206 µM; in experiment [4] (setting [6]), 1.1 µM; in experiment [5], over 10000 nM. In addition, the inhibition (as a rule, the share of the control response that was lost under treatment) at 10 µM in experiment [1] turned out to be 26.5%; in experiment [5], 19.2%.

As to `[2H]c1nc([2H])c(-c2ccc3cnc(NC(=O)CN4CCOCC4)cc3c2)c([2H])c1[2H]` [Compound 62, 2-Morpholino-N-(6-(pyridin-3-yl-d4)isoquinolin-3-yl)acetamide], the EC50 in experiment [1] is over 10000 nM; in experiment [2] it was 307 nM; in experiment [3], 0.086 µM; in experiment [4] (setting [6]) it was 4.8 µM; in experiment [5] it was over 10000 nM. Further, the results for the inhibition at 10 µM in experiment [1] and in experiment [5] were 18.4% and 16.6%, respectively.

With `CN1CCN(C[C@H]2CC[C@H](C(=O)Nc3cc4cc(-c5cncc(F)c5)ccc4cn3)CC2)CC1` [Compound 17, trans-N-(6-(5-Fluoropyridin-3-yl)isoquinolin-3-yl)-4-((4-methylpiperazin-1-yl)methyl)cyclohexane-1-carboxamide], the EC50 is 6730 nM in experiment [1]; 38 nM in experiment [2]; 0.004 µM in experiment [3]; 4.6 µM in experiment [4] (setting [6]); 3470 nM in experiment [5].

As to `O=C(Cn1ccnc1)Nc1cc2cc(-c3cccnc3)ccc2cn1` [Compound 15, 2-(1H-Imidazol-1-yl)-N-(6-(pyridin-3-yl)isoquinolin-3-yl)acetamide], the concentration for a half-maximal effect (EC50) in experiment [1] stood at 3100 nM; in experiment [2] it was 21 nM; in experiment [3], 0.2 µM; in experiment [4] (setting [6]) it was 1.1 µM; in experiment [5], 6440 nM.

In the case of `O=C(Nc1cc2cc(-c3cncc(CN4CCOCC4)c3)ccc2cn1)C1CC1` [Compound 57, N-(6-(5-(Morpholinomethyl)pyridin-3-yl)isoquinolin-3-yl) cyclopropanecarboxamide], the concentration giving a half-maximal response (EC50) amounted to 1140 nM in experiment [1]; 152 nM in experiment [2]; 0.05 µM in experiment [3]; 2 µM in experiment [4] (setting [6]); 3180 nM in experiment [5].

As for `Cc1cncc(-c2ccc3cnc(NC(=O)CN4CCOCC4)cc3c2)c1` [Compound 146, N-(6-(5-Methylpyridin-3-yl)isoquinolin-3-yl)-2-morpholinoacetamide], the 50% effective concentration (EC50) was over 10000 nM in experiment [1]; 201 nM in experiment [2]; 0.054 µM in experiment [3]; 7.8 µM in experiment [4] (setting [6]); over 10000 nM in experiment [5]. Besides, the inhibition at 10 µM in experiment [1] was found to be 38.5%; in experiment [5] it was 23.1%.

As for `CN1CCN(CC(=O)Nc2cc3cc(-c4cccnc4)ccc3cn2)CC1` [Compound 11, 2-(4-Methylpiperazin-1-yl)-N-(6-(pyridin-3-yl)isoquinolin-3-yl)acetamide], the EC50 in experiment [1] was over 10000 nM; in experiment [2] it was 327 nM; in experiment [3], 2.5 µM; in experiment [4] (setting [6]), 5.8 µM; in experiment [5] it was over 10000 nM. The inhibition at 10 µM in experiment [1] stood at 10.8%; in experiment [5] it was 25.6%.

Consider `[2H]c1nc([2H])c(-c2ccc3cnc(NC(=O)CN4CCCC4)cc3c2)c([2H])c1[2H]` [Compound 60, N-(6-(pyridin-3-yl-d4)isoquinolin-3-yl)-2-(pyrrolidin-1-yl)acetamide], for which the EC50 in experiment [1] was over 10000 nM; in experiment [2], 3230 nM; in experiment [3], 0.126 µM; in experiment [4] (setting [6]), 1.9 µM; in experiment [5] it was 3940 nM. Also, the inhibition at 10 µM in experiment [1] is 41.9%.

Turning to `O=C(Nc1cc2cc(-c3cccnc3)ccc2cn1)C12CCN(CC1)CC2` [Compound 9, N-(6-(Pyridin-3-yl)isoquinolin-3-yl)quinuclidine-4-carboxamide], the EC50 in experiment [1] was over 10000 nM; in experiment [2] it was 745 nM; in experiment [3], 0.213 µM; in experiment [4] (SH-SY5Y, read-out: pSer396 Tau EC50 (μM)) it was over 10 µM; in experiment [5] it was over 10000 nM. The inhibition at 10 µM in experiment [1] amounted to 11.8%; in experiment [5], 26%.

For `O=C(Nc1cc2cc(-c3cnccn3)ccc2cn1)C1CCN(CCF)CC1` [Compound 77, 1-(2-Fluoroethyl)-N-(6-(pyrazin-2-yl)isoquinolin-3-yl)piperidine-4-carboxamide], the concentration for a half-maximal effect (EC50) is over 10000 nM in experiment [1]; 280 nM in experiment [2]; 0.062 µM in experiment [3]; over 10 µM in experiment [4] (setting [6]); over 10000 nM in experiment [5]. The results for the inhibition at 10 µM in experiment [1] and in experiment [5] were 36.4% and 33.8%, respectively.
